The results in this text go back to US4000281A, “Pyrazole derivatives” (priority 1971, dated 1976).

This assay has as its system rhinovirus type 5 (prototype). Nature of the assay: Inhibition of rhinovirus cytopathogenic effect in human embryonic lung cultures, type 5. It is filed as cell-based. As to conditions: 50 and 75 μgm/ml. As to the method: Other tests were carried out to determine the inhibitory effect of 3-(4-pyridyl)-4-(2-hydroxyphenyl)-5-ethylpyrazole on various types of rhinovirus.
In each test two cultures of human embryonic lung were prepared of which one was treated with the above compound while the other served as control. The cultures were then infected with a strain of rhinovirus. The compound was used in concentrations of 50 and 75 μgm/ml and was considered to be active if the cytopathogenic effect of the rhinovirus was reduced by at least 75% as compared to the control culture. This cytopathogenic effect was determined by counting the number of plaques formed by destroyed cells.
Seven human types of rhinovirus were employed and the following results registered: […]
On the technique in general: Cytopathic effects are the visible damage that an infection or toxin causes in cultured cells.

With `CCc1[nH]nc(-c2ccncc2)c1-c1ccccc1O` [Compound A, 3-(4-pyridyl)-4-(2-hydroxyphenyl)-5-ethylpyrazole], the ACTIVITY entry is “+ (active)”.
